Test results from patent publication US7863321B2, “Anti-cancer combinations” (Cancer Research Technology Limited, priority 2001, dated 2011).
Counter-ions that a name gives are not always drawn. Like-named read-outs stand apart in the source and are kept apart here. Marks after values point to notes of the source that are not given here.

How the values were obtained:
MDAH-Mca-4 tumours = type: in vivo, C3H/HeN mice; conditions: for DMF: Dose Modifying Factor = gradient with DMXAA (80 μmol/kg)/gradient without DMXAA; for single agent activity against MDAH-Mca-4 tumour: doses up to MTD; for Slope of dose/response: growth delay vs dose, linear regression; for growth delays at their MTDs: chemotherapy drug alone at MTD
Experimental: (§1) Compounds: A stock solution of DMXAA, synthesised in the Auckland Cancer Society Research Centre, was prepared in phosphate-buffered saline, protected from light and stored frozen. Cisplatin (Sigma Chemical Co., St. Louis, Mo.) was dissolved in 0.9% saline. Stock solutions of carboplatin and 5-fluorouracil (Bristol Myers Squibb, Sermonita, Italy) and cyclophosphamide (Mead Johnson Oncology Products, Princeton, N.J.) were diluted with sterile water. […] All compounds were administered to mice by i.p. injection at 0.01 ml/g bodyweight.
(§2) Animals and Tumours: Murine mammary carcinoma MDAH-Mca-4 tumours were grown from stocks stored in liquid nitrogen at the sixth transplant generation. Tumours (eighth transplant generation when used) were grown from 20 μl of cell suspension (7 mg packed cells), inoculated i.m. (intramuscular) in the right gastrocnemius muscle of female C3H/HeN mice (22-25 g at the time of treatment). Mice were randomised to treatment which commenced when the tumour+leg diameter reached 10-11 mm (0.5-0.7 g tumour).
(§3) Host Toxicity and Antitumour Activity: Mice were treated with chemotherapeutic drugs at a range of doses, at 1.33-fold increments, up to the expected MTD (maximum tolerated dose, as estimated in pilot experiments or from the literature). Toxicity was assessed as lethality, and body weight loss measured four days after treatment. Any animals becoming moribund were terminated and treated as drug-related deaths in the analysis. The diameter of the tumour-bearing leg was measured 3 times per week after treatment. Antitumour activity was assessed from the tumour growth delay, defined as the difference in time to reach the endpoint of 13 mm (1.5 g tumour) for treated and control groups. Responses were classed as cures if animals were free of evident tumour 120 days after treatment. The statistical significance of tumour growth inhibition was tested by ANOVA using SAS for Windows, with Dunnett's test to evaluate p-values for differences between treatment groups. In experiments with substantial numbers of cures (free of tumour for >120 days after treatment), statistical significance was tested by Kruskal-Wallis non-parametric analysis of variance using SAS for Windows, and the difference between treatment and control groups by Dunn's test using Sigmastat v2.0. The gradient and standard error of dose-response curves was determined by linear regression using Sigmastat, and the DMF (Dose Modifying Factor) calculated as the gradient with DMXAA/gradient without DMXAA.

in vivo [1] = assay: in vivo
Experimental: as §1, §2, §3

in vivo [2] = conditions: female, C3H/HeN, mouse, plasma, ip, 80 μmol/kg
Experimental: (§4) Pharmacokinetics: Female C3H/HeN mice bearing MDAH-Mca-4 tumours (0.5-0.7 g) were injected i.p. with carboplatin (316 μmol/kg), DMXAA (80 μmol/kg), or simultaneously received carboplatin and DMXAA, at the same doses. […] Groups of 2-5 mice were used for each time point.
(§5) HPLC analysis of DMXAA: Concentrations of DMXAA in plasma were determined as follows. Aliquots of plasma (50 μl) were treated with 1 ml of ice-cold acetonitrile:methanol (3:1 v/v), centrifuged, and the resulting supernatants evaporated using a Speed-Vac solvent concentrator (Savant Instruments, NY). The residues were dissolved in 200 μl of 10 mM ammonium acetate buffer (pH 5) and 25 μl was analysed by HPLC using a HP1100 system with diode array detector (278 nm) and fluorescence detector. The column used was a 3.2 mm×150 mm C8 5 μm column (Alltima Associates Inc., Deerfield, Ill.) and a flow rate of 0.7 ml/min, with a mobile phase of 16% acetonitrile (v/v) in 10 mM ammonium acetate buffer (pH 5). The retention time for DMXAA was 7.3 min. […] The intra- and inter-assay precision and accuracy gave coefficients of variation <7%, and an average recovery of 70%. The lower sensitivity limit of detection by fluorescence (signal:noise ratio of 3) was 0.1 μM. […]

tumour blood flow = conditions: Phase I clinical trials, well-tolerated doses; cited from earlier work
[3] = Pharmacokinetics of carboplatin (platinum by ICP-MS) and DMXAA (HPLC) in plasma and tumour; conditions: plasma; DMXAA 80 μmol/kg i.p.; (% CV)
Experimental: as §4, §5

[4] = system: PSN1 pancreatic tumour xenografts; assay: PSN1 xenograft tumour volume tripling and doubling time; conditions: i.v., DMXAA 20 mg/kg, gemcitabine 240 mg/kg, female MF1 nude mice; for PSN1 volume doubling times, Median: control 3.2; for PSN1 volume tripling times, Median: control 4.9
[5] = chemotherapy drug alone, ± standard error of the slope
[6] = co-administered with DMXAA 80 μmol/kg
[7] = chemotherapy drug alone, i.p., mice bearing MDAH-Mca-4 tumours
[8] = chemotherapy drug co-administered with DMXAA 80 μmol/kg, i.p.
[9] = DMXAA alone at 80 μmol/kg, i.p.
[10] = female, C3H/HeN, mouse, in vivo, ip, MTD
[11] = female, C3H/HeN, mouse, in vivo, ip

| SMILES | DMF (MDAH-Mca-4 tumours) | single agent activity against MDAH-Mca-4 tumour (MDAH-Mca-4 tumours; chemotherapy drug alone) | Slope of dose/response (MDAH-Mca-4 tumours; [5]) | Slope of dose/response (MDAH-Mca-4 tumours; [6]) [days/µmol/kg] | % body weight change at 4 days (in vivo [1]; chemotherapy drug alone, i.p.) [%] | % body weight change at 4 days (in vivo [1]; [8]) [%] | growth delays at their MTDs (MDAH-Mca-4 tumours) [days] | MTD (in vivo [1]; [10]) [µmol/kg] | further results |
| --- | --- | --- | --- | --- | --- | --- | --- | --- | --- |
| N.N.O=C([O-])C1(C(=O)[O-])CCC1.[Pt+2] [Carboplatin, platinum, diammine [1,1-cyclobutanedicarboxylato(2-)-0,0′]-, (SP-4-2)] | 3.4 ± 2.3 | essentially inactive | 0.0094 ± 0.0035 days/µmol/kg | 0.032 ± 0.010 | −5.6 ± 1.5 | −8.5 ± 1.4 |  |  | MTD (in vivo [1]; [7]): 316 µmol/kg; MTD (in vivo [1]; [8]): 316 µmol/kg |
| Cc1ccc2c(=O)c3cccc(CC(=O)O)c3oc2c1C [DMXAA, 5,6-dimethylxanthenone-4-acetic acid] |  |  |  |  |  |  |  |  | mean tumour growth delays (range) (MDAH-Mca-4 tumours; [9]): 3.5 to 8.3 days; tumour growth delay, overall mean (MDAH-Mca-4 tumours; [9]): 6.6 ± 0.6 days; Km (in vivo [2]): 220 µM; tumour blood flow by dynamic MRI (tumour blood flow): significant reduction in tumour blood flow; Vmax [3]: 63 (6.1) μm hr^−1; PSN1 volume doubling times, Treated-Control [4]: 0.4 days; PSN1 volume tripling times, Treated-Control [4]: 1.1 days; PSN1 volume doubling times, Median [4]: 3.6 days; PSN1 volume tripling times, Median [4]: 6.0 days |
| O=c1[nH]cc(F)c(=O)[nH]1 [5-fluorouracil, 5-fluoro-2,4(1H,3H)-pyrimidinedione] | 0.5 ± 0.2 |  | 0.0051 ± 0.001^a days/μmol/kg | 0.0027 ± 0.001 | −8.5 ± 0.8 | −14.1 ± 1.5 | ~10 | 1780 |  |
| N.N.[Cl][Pt][Cl] [Cisplatin] | 1.8 ± 1.2 |  | 0.19 ± 0.06 days/µmol/kg | 0.35 ± 0.12 | −9.5 ± 1.4 | −14.4 ± 2.3 | ~10 |  | MTD (in vivo [1]; [7]): 42.1 µmol/kg; MTD (in vivo [1]; [8]): 42.1 µmol/kg |
| COc1cccc2c1C(=O)c1c(O)c3c(c(O)c1C2=O)C[C@@](O)(C(=O)CO)C[C@@H]3O[C@H]1C[C@H](N)[C@H](O)[C@H](C)O1 [Doxorubicin, (8S,10S)-10-[(3-amino-2,3,6-trideoxy-a-L-lyxo-hexopyranosyl)oxy]-8-glycolyl-7,8,9,10-tetrahydro-6,8,11-trihydroxy-1-meth-oxy-5,12-naphthacenedione hydrochloride] | 2.5 ± 1.1 |  | 0.42 ± 0.10 days/µmol/kg |  | −3.9 ± 0.6 | −5.5 ± 1.2 | ~10 | 23.7 | MTD (in vivo [1]; [11]): 17.8 µmol/kg |
| O=P1(N(CCCl)CCCl)NCCCO1 (centres unmarked) [Cyclophosphamide, 2-[bis(2-chloroethyl)amino]tetrahydro-2H-13,2-oxazaphosphorine-2-oxide monohydrate] | 2.7 ± 0.3 |  | 0.0062 ± 0.0001 days/µmol/kg | 0.0167 ± 0.0013 | −0.8 ± 1.3 | −9.2 ± 1.4 | ~10 |  | MTD at 4 days (in vivo [1]; [11]): ≥ 1340 µmol/kg |
| Nc1ccn([C@@H]2O[C@H](CO)[C@@H](O)C2(F)F)c(=O)n1 [gemcitabine, 2′-deoxy-2′,2′-difluorocytidine monohydrochloride (b-isomer)] |  |  |  |  |  |  |  |  | PSN1 volume doubling times, Treated-Control [4]: 7.5 days; PSN1 volume tripling times, Treated-Control [4]: 9.0 days; PSN1 volume doubling times, Median [4]: 9.7 days; PSN1 volume tripling times, Median [4]: 13.9 days |
| CC[C@]1(O)C[C@H]2CN(CCc3c([nH]c4ccccc34)[C@@](C(=O)OC)(c3cc4c(cc3OC)N(C=O)[C@H]3[C@@](O)(C(=O)OC)[C@H](OC(C)=O)[C@]5(CC)C=CCN6CC[C@]43[C@@H]65)C2)C1 [Vincristine] | >7^c | essentially inactive | -0.0 ± 1.3 days/µmol/kg | 14.1 ± 5.4 | −7.0 ± 1.2 | −10.0 ± 1.4 |  |  | MTD (in vivo [1]; female, C3H/HeN, mouse, in vivo, ip, MTD, chemotherapy drug alone, mice bearing MDAH-Mca-4 tumours): 1 µmol/kg; MTD (in vivo [1]; female, C3H/HeN, mouse, in vivo, ip, MTD, chemotherapy drug co-administered with DMXAA 80 μmol/kg): 1 µmol/kg |
| COc1cc([C@@H]2c3cc4c(cc3[C@@H](O[C@@H]3O[C@@H]5CO[C@@H](C)O[C@H]5[C@H](O)[C@H]3O)[C@H]3COC(=O)[C@H]23)OCO4)cc(OC)c1O [Etoposide, 4′-demethylepipodophyllotoxin-9-[4,6-0-(R)-ethylidene-(beta)-D-glucopyranoside]] | 4.7 ± 2.9 | essentially inactive | 0.030 ± 0.010 days/µmol/kg | 0.14 ± 0.04 | −2.0 ± 1.7 | −6.5 ± 3.3 |  | ≥ 75 |  |
